Earlier results as cited in patent publication US20080096915A1, “COMPOSITIONS FOR THE TREATMENT OF METABOLIC DISORDERS” (Greenberg Traurig LLP, priority 2005, published 2008).

Assays:
patients = settings: 150-200 mg/day cicletanine, over 12 months; fell from 128
[1] = tested on: patients whose blood pressure had not been normalized; settings: cicletanine 50 and 100 mg per day added to calcium channel blockers, beta blockers or ACE inhibitors
[2] = tested on: Dahl salt-sensitive rats with salt-induced hypertension
hypertensives = tested on: hypertensives; parameters: dose or concentration left out as unconfirmed; settings: 1050 hypertensives, for three months, dose doubled in one third; decreased from 176/104
sulfonylurea receptor = sulfonylurea receptor (Homo sapiens, UniProt Q09428)
sulfonylurea receptor, sequence (Q09428 whole entry): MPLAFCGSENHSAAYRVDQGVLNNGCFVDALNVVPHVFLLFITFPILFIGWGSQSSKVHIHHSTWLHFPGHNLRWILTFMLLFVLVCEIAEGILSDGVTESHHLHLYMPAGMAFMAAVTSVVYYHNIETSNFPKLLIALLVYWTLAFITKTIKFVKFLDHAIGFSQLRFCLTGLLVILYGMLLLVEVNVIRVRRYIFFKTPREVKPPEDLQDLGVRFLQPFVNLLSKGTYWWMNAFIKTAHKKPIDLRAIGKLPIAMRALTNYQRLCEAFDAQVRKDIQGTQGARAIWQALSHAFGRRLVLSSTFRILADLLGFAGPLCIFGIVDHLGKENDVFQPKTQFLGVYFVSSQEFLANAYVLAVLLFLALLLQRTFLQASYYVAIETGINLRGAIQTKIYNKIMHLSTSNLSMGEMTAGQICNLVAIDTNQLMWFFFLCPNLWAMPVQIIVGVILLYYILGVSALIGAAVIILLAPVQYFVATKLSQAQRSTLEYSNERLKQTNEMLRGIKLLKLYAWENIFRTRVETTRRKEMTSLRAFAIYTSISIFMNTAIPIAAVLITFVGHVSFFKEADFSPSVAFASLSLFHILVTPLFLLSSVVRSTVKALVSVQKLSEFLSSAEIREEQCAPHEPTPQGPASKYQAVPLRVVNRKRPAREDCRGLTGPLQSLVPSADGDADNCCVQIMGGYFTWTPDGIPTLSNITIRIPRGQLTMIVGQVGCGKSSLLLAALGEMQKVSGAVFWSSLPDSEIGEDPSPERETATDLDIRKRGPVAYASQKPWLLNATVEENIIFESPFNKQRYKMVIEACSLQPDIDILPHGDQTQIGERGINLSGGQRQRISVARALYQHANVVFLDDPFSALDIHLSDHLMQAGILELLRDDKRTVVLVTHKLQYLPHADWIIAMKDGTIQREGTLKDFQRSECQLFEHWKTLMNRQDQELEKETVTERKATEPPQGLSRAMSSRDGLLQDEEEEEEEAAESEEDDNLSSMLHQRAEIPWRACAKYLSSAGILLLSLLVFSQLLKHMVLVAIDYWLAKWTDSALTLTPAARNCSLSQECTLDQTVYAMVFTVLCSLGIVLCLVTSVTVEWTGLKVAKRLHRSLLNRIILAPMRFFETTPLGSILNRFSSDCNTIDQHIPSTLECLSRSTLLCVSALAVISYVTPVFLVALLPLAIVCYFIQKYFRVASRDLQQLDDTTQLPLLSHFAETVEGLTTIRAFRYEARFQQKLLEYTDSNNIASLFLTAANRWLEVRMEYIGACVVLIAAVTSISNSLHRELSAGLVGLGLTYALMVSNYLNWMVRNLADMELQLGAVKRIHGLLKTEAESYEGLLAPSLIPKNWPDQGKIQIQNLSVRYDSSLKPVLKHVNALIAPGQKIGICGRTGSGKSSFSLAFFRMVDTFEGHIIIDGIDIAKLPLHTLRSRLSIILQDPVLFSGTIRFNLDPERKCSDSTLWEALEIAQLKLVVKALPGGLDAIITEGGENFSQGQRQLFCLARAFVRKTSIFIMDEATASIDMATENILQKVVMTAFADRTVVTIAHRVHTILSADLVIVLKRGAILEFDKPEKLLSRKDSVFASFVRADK
sulfonylurea receptor, sequence (Q14654 whole entry partner): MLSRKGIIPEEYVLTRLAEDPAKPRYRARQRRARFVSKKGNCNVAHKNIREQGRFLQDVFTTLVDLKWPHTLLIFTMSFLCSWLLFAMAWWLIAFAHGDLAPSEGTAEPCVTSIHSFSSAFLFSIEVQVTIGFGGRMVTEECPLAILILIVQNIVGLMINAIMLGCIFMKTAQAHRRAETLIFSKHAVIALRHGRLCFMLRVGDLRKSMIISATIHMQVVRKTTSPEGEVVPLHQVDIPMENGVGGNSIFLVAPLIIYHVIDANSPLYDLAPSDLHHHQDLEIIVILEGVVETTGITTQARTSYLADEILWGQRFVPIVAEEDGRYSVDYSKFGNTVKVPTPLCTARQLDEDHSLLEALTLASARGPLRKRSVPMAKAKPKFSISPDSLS

[3] = in vivo

## Cc1ncc2c(c1O)COC2c1ccc(Cl)cc1 (racemic) [cicletanine, +−3-(4-chlorophenyl)-1,3-dihydro-6-methylfuro-[3,4-c]pyridin-7-ol]
patients
  average triglyceride level after treatment: 104 mg/dL
Healthy subjects; 10 healthy subjects, single intravenous tolbutamide after 7 days of cicletanine 100 mg per day
  peak insulin response to tolbutamide, following cicletanine administration: 17.4 mU/L
Healthy subjects; after 7 days of cicletanine 100 mg per day
  hypoglycemic effect of tolbutamide following cicletanine administration: did not change
[1]
  patients whose blood pressure was normalized: 50 % of patients
[2]
  high-density lipoprotein (HDL) cholesterol: increased
  low-density lipoprotein (LDL) cholesterol: significantly decreased
hypertensives
  blood pressure after treatment: 151/86

## Cc1cnc(C(=O)NCCc2ccc(S(=O)(=O)NC(=O)NC3CCCCC3)cc2)cn1 [glipizide]
Sulfonylurea receptor
  concentration range that saturates receptors: low nanomolar

## COc1ccc(Cl)cc1C(=O)NCCc1ccc(S(=O)(=O)NC(=O)NC2CCCCC2)cc1 [glyburide]
[3]
  plasma half-life: 4 to 11 h

## CCCCNC(=O)NS(=O)(=O)c1ccc(C)cc1 [tolbutamide]
Healthy subjects; 10 healthy subjects, single intravenous dose of tolbutamide alone
  peak insulin response to tolbutamide, before cicletanine administration: 29.2 mU/L
